For 6 compounds, inhibition and CC50 results are on record in patent US9873680B2 (Gilead Sciences, Inc., priority 2014, dated 2018).

One may read the inhibition as the change of the read-out against control, counted positive when it falls. A word on the CC50: it is the concentration that lowers cell viability or growth by half. A high value points to better tolerance by the cells.

One series concerns HIV-IIIb. The series can be described thus: Test A: Antiviral Assay in MT4 Cells. Type of series: cell-based, HIV-1. The gist of the method: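 MT-4 cells were preinfected with HIV-IIIb […]. Cell viability, as protection from viral cytopathic effect, was read by CellTiter-Glo chemiluminescence.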
Series [1] is described as follows: Test B: Cytotoxicity Assay. The class given is cell-based. The settings on record: human, uninfected MT-4 cells, CellTiter-Glo. As for the experimental part: Test B: Cytotoxicity Assay Compound cytotoxicity and the corresponding CC50 values was determined using the same protocol as described in the antiviral assay (Test A) except that uninfected cells were used.

[2] abbreviates: Human immunodeficiency virus 1, MT4, 120 h, 0.2 μM drug concentration, MT-4 cells infected with HIV-IIIb, 5 days, values normalized to 100%, average over time, read-out: % inhibition at 0.2 μM (percent inhibition of virus-induced cell killing).

The structures appear in SMILES notation. Where two headings read alike, the source gives them in different places. A value given as a limit tells only on which side of the number the result lay.

In the case of `Cn1nc(NS(C)(=O)=O)c2cccc(-c3ccc(C#CC4(O)CCOC4)nc3[C@H](Cc3cc(F)cc(F)c3)NC(=O)Cn3nc(C(F)(F)F)c4c3C(F)(F)[C@@H]3C[C@H]43)c21` (stereo partly drawn) [Compound 30B, 2-((3bS,4aR)-5,5-difluoro-3-(trifluoromethyl)-3b,4,4a,5-tetrahydro-1H-cyclopropa[3,4]cyclopenta[1,2-c]pyrazol-1-yl)-N-((1S)-2-(3,5-difluorophenyl)-1-(6-((3-hydroxytetrahydrofuran-3-yl)ethynyl)-3-(1-methyl-3-(methylsulfonamido)-1H-indazol-7-yl)pyridin-2-yl)ethyl)acetamide], the inhibition at 0.2 µM with HIV-IIIb (setting [2]) was found to be 100%. In series [1], this compound displayed a CC50 at 5 days of 19.5 µM.
In the case of `Cn1nc(NS(C)(=O)=O)c2c(Cl)ccc(-c3ccc(C#CC(C)(C)n4cn[nH]c4=O)nc3[C@H](Cc3cc(F)cc(F)c3)NC(=O)Cn3nc(C(F)F)c4c3C(F)(F)[C@@H]3C[C@H]43)c21` [Compound 98D, N—((S)-1-(3-(4-chloro-1-methyl-3-(methylsulfonamido)-1H-indazol-7-yl)-6-(3-methyl-3-(5-oxo-1H-1,2,4-triazol-4(5H)-yl)but-1-yn-1-yl)pyridin-2-yl)-2-(3,5-difluorophenyl)ethyl)-2-((3bS,4aR)-3-(difluoromethyl)-5,5-difluoro-3b,4,4a,5-tetrahydro-1H-cyclopropa[3,4]cyclopenta[1,2-c]pyrazol-1-yl)acetamide], in the series with HIV-IIIb (setting [2]), the inhibition at 0.2 µM turned out to be 94%. The CC50 at 5 days in series [1] was determined as 10.4 µM.
For the compound `Cc1cc(C#Cc2ncc(-c3ccc(F)c(C(N)=O)c3)c([C@H](Cc3cc(F)cc(F)c3)NC(=O)Cn3nc(C(F)(F)F)c4c3C(F)(F)[C@@H]3C[C@H]43)n2)ccn1` [Compound 18C, 5-(4-((S)-1-(2-((3bS,4aR)-5,5-difluoro-3-(trifluoromethyl)-3b,4,4a,5-tetrahydro-1H-cyclopropa[3,4]cyclopenta[1,2-c]pyrazol-1-yl)acetamido)-2-(3,5-difluorophenyl)ethyl)-2-((2-methylpyridin-4-yl)ethynyl)pyrimidin-5-yl)-2-fluorobenzamide], the inhibition at 0.2 µM in the series with HIV-IIIb (Human immunodeficiency virus 1, IIIB, MT4, 0.2 μM drug concentration, comparison with previously published compounds, read-out: Response at 0.2 μM (percent inhibition of virus-induced cell killing)) turned out to be 90%; in the series on HIV-IIIb (setting [2]) it was 90%. Besides, the inhibition at 2 µM in the series with HIV-IIIb (Human immunodeficiency virus 1, IIIB, MT4, 2 μM drug concentration, comparison with previously published compounds, read-out: Response at 2 μM (percent inhibition of virus-induced cell killing)) came to 94%. The compound also registered a half-maximal cytotoxic concentration (CC50) at 5 days in series [1] of 2.31 µM.
With `Cn1nc(NS(C)(=O)=O)c2c(Cl)ccc(-c3ccc(C#CC4(C)OCCn5ccnc54)nc3[C@H](Cc3cc(F)cc(F)c3)NC(=O)Cn3nc(C(F)(F)F)c4c3C(F)(F)[C@@H]3C[C@H]43)c21` (some centres unmarked) [Compound 81E], the inhibition at 0.2 µM in the series with HIV-IIIb (Human immunodeficiency virus 1, IIIB, MT4, 120 h, read-out: % inhibition at 0.2 μM (percent inhibition of virus-induced cell killing)) came to 87%. This compound registered a CC50 at 5 days in series [1] above 57 µM.
With `CN1CC(O)(C#Cc2ccc(-c3cccc4c(NS(C)(=O)=O)nn(C)c34)c([C@H](Cc3cc(F)cc(F)c3)NC(=O)Cn3nc(C(F)(F)F)c4c3C(F)(F)[C@@H]3C[C@H]43)n2)C1` [Compound 23C, 2-((3bS,4aR)-5,5-difluoro-3-(trifluoromethyl)-3b,4,4a,5-tetrahydro-1H-cyclopropa[3,4]cyclopenta[1,2-c]pyrazol-1-yl)-N—((S)-2-(3,5-difluorophenyl)-1-(6-((3-hydroxy-1-methylazetidin-3-yl)ethynyl)-3-(1-methyl-3-(methylsulfonamido)-1H-indazol-7-yl)pyridin-2-yl)ethyl)acetamide], the inhibition at 0.2 µM in the series with HIV-IIIb (setting [2]) amounted to 100%. In series [1], this compound showed a CC50 at 5 days of 9.19 µM.
As for `Cc1cc2ncn(CC(=O)N[C@@H](Cc3cc(F)cc(F)c3)c3nc(C#CC4(O)CCOCC4)ccc3-c3ccc4n[nH]c(=O)n4c3C)c2cc1C` [Compound 3D, (S)—N-(2-(3,5-difluorophenyl)-1-(6-((4-hydroxytetrahydro-2H-pyran-4-yl)ethynyl)-3-(5-methyl-3-oxo-2,3-dihydro-[1,2,4]triazolo[4,3-a]pyridin-6-yl)pyridin-2-yl)ethyl)-2-(5,6-dimethyl-1H-benzo[d]imidazol-1-yl)acetamide], in the series on HIV-IIIb (setting [2]), the inhibition at 0.2 µM amounted to 91%. This compound showed a CC50 at 5 days in series [1] of 31.6 µM.
